Test results taken from PubChem BioAssay AID1963966 (Molecular Pharmacology Branch, DTP, NCI, 2024).
“And” between values parts separate entries of the source, which are not always exact repeats. Equal values may be shown once.

Tested on: 935938-334-R-J1-PDC spheroids with HUVEC/MSC, viability
Experiment: Anticancer human tumor 935938-334-R-J1-PDC patient-derived small intestine adenocarcinoma cell line growth inhibition [PI3K]
Conditions: for viability, T/C: stronger effect = lower value
Source text: Combinatorial screen of targeted agents with the PI3K inhibitors inavolisib, alpelisib, duvelisib, and copanlisib in multi-cell type tumor spheroids
A high-throughput screen of multi-cell type tumor spheroids was designed to identify active combinations of targeted small molecules and PI3K pathway inhibitors. Complex spheroids include a stromal component modeled by human endothelial cells (HUVEC) and fibroblasts modeled by human mesenchymal stem cells (MSCs). The concentration ranges selected for each drug and investigational agent were based upon clinically achievable concentrations if the clinical Cmax of the agent was known.
Compounds. The drugs and investigational agents: inavolisib (NSC800729), alpelisib (NSC765974), duvelisib (NSC772469), copanlisib (NSC816437), ipatasertib (NSC767898), afuresertib (NSC778305), talazoparib (NSC767125), sapanisertib (NSC764658), selumetinib (NSC741078), tovorafenib (DAY101, NSC766906), vemurafenib (NSC761431), ravoxertinib (NSC781343), sotorasib (NSC818433), MRTX1133 (NSC 836407), abemaciclib (NSC 768073), palbociclib (NSC758247), venetoclax (NSC 766270), SY5609 (NSC837396), enzalutamide (NSC755605), and darolutamide (NSC825331), were obtained from the National Cancer Institute (NCI) Developmental Therapeutics Program Chemical Repository. The FDA-approved anticancer drug set is available from the NCI Developmental Therapeutics Program. […] The stock solutions were prepared in dimethyl sulfoxide (DMSO, Sigma-Aldrich, St. Louis, MO, cat. D2650) at 800-fold the tested concentration and stored at -70 degrees C prior to their use. All drugs and investigational agents were tested over a range starting from a high concentration at or near the clinical Cmax and decreasing in half-log increments. If the clinical Cmax for an agent had not been determined, the highest concentration tested was 10 microM.
Cell Culture. All cells were maintained in an incubator at 37 degrees C and 5% CO2 with 95% humidity. The PDC lines were cultured according to standard operating procedures established by the NCI PDMR (https://pdmr.cancer.gov/sops/default.htm). All PDCs were thawed and cultured in Matrigel-coated flasks prepared with a working solution of 1X Ham's F-12 nutrient mix, without supplementation (Invitrogen, Waltham, MA, cat. 11765054), 100 U/mL penicillin-streptomycin (Invitrogen, cat. 15140122), and 2.5% Matrigel (Corning Inc., Corning, NY, cat. 354248) for the first three passages. The 354836-022-R-J1-PDC, 475296-252-R-J1-PDC, and 997726-040-R-J2-PDC lines were cultured in 6A media, which includes advanced DMEM/F-12 (Thermo Fisher Scientific, cat. 12634028), 10 mM HEPES (Thermo Fisher Scientific, cat. 15630080), 1X GlutaMAX supplement (Thermo Fisher Scientific, cat. 35050061), 0.1 mg/mL primocin (InvivoGen, San Diego, CA, cat. ant-pm-2), 10% defined fetal bovine serum, heat inactivated (HyClone Laboratories Inc., Logan, UT, cat. SH30070.03HI), 50% L-WRN conditioned media (ATCC, cat. CRL-3276), 1.25 mM N-Acetyl-L-cysteine (Sigma-Aldrich, cat. A9165), 10 mM nicotinamide (Sigma-Aldrich, cat. N0636), 1X B-27 supplement (Thermo Fisher Scientific, cat. 17504044), 1X N-2 supplement (Thermo Fisher Scientific, cat. 17502048), and 10 microM Y-27632 dihydrochloride (Tocris Bioscience, Bristol, United Kingdom, cat. 1254). The 624824-186-R-J2-PDC line was cultured in 6C/Colon 1B media, which includes all 6A media components plus 50 ng/mL human EGF recombinant protein (Thermo Fisher Scientific, cat. PHG0311). […]

[1] = curve of first compound, second compound 0.0316 µM
[2] = curve of first compound, second compound 0.1 µM
[3] = curve of first compound, second compound 0.316 µM
[4] = curve of first compound, second compound 1 µM
[5] = second compound 0.0316 µM, first compound 0.0316 µM
[6] = second compound 0.0316 µM, first compound 0.1 µM
[7] = second compound 0.0316 µM, first compound 0.316 µM
[8] = second compound 0.0316 µM, first compound 1 µM
[9] = second compound 0.0316 µM, first compound 3.16 µM
[10] = second compound 0.0316 µM, first compound 10 µM
[11] = second compound 0.1 µM, first compound 0.0316 µM
[12] = second compound 0.1 µM, first compound 0.1 µM
[13] = second compound 0.1 µM, first compound 0.316 µM
[14] = second compound 0.1 µM, first compound 1 µM
[15] = second compound 0.1 µM, first compound 3.16 µM
[16] = second compound 0.1 µM, first compound 10 µM
[17] = second compound 0.316 µM, first compound 0.0316 µM
[18] = second compound 0.316 µM, first compound 0.1 µM
[19] = second compound 0.316 µM, first compound 0.316 µM
[20] = second compound 0.316 µM, first compound 1 µM
[21] = second compound 0.316 µM, first compound 3.16 µM
[22] = second compound 0.316 µM, first compound 10 µM
[23] = second compound 1 µM, first compound 0.0316 µM
[24] = second compound 1 µM, first compound 0.1 µM
[25] = second compound 1 µM, first compound 0.316 µM
[26] = second compound 1 µM, first compound 1 µM
[27] = second compound 1 µM, first compound 3.16 µM
[28] = second compound 1 µM, first compound 10 µM
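Also: compound exposure lasted seven days before viability was read.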
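For viability, T/C in this document: percent of vehicle DMSO treated spheroid viability so 100% = untreated.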

## C=CC(=O)N1CCN(c2nc(=O)n(-c3c(C)ccnc3C(C)C)c3nc(-c4c(O)cccc4F)c(F)cc23)C(C)C1 (stereo not given) + CC(Nc1ccc2c(c1)OCCn1cc(N3C(=O)OCC3C(F)F)nc1-2)C(N)=O
Curve of first compound, second compound 0.00316 µM
  IC50: > 10000 nM
Curve of first compound, second compound 0.01 µM
  IC50: > 10000 nM
[1]
  IC50: > 10000 nM
[2]
  IC50: > 10000 nM
[3]
  IC50: > 10000 nM
[4]
  IC50: 8040 nM
Second compound 0.00316 µM, first compound 0.0316 µM
  viability, T/C: 101%
Second compound 0.00316 µM, first compound 0.1 µM
  viability, T/C: 99.6%
Second compound 0.00316 µM, first compound 0.316 µM
  viability, T/C: 103%
Second compound 0.00316 µM, first compound 1 µM
  viability, T/C: 99.3%
Second compound 0.00316 µM, first compound 3.16 µM
  viability, T/C: 91%
Second compound 0.00316 µM, first compound 10 µM
  viability, T/C: 106%
Second compound 0.01 µM, first compound 0.0316 µM
  viability, T/C: 96.9%
Second compound 0.01 µM, first compound 0.1 µM
  viability, T/C: 85%
Second compound 0.01 µM, first compound 0.316 µM
  viability, T/C: 90.4%
Second compound 0.01 µM, first compound 1 µM
  viability, T/C: 87.9%
Second compound 0.01 µM, first compound 3.16 µM
  viability, T/C: 92.5%
Second compound 0.01 µM, first compound 10 µM
  viability, T/C: 98.2%
[5]
  viability, T/C: 134%
[6]
  viability, T/C: 119%
[7]
  viability, T/C: 101%
[8]
  viability, T/C: 86%
[9]
  viability, T/C: 85.8%
[10]
  viability, T/C: 93.3%
[11]
  viability, T/C: 88.4%
[12]
  viability, T/C: 84.4%
[13]
  viability, T/C: 98.3%
[14]
  viability, T/C: 104%
[15]
  viability, T/C: 89.5%
[16]
  viability, T/C: 97.7%
[17]
  viability, T/C: 80.9%
[18]
  viability, T/C: 80.5%
[19]
  viability, T/C: 71%
[20]
  viability, T/C: 74.2%
[21]
  viability, T/C: 72.5%
[22]
  viability, T/C: 68.1%
[23]
  viability, T/C: 86%
[24]
  viability, T/C: 67.6%
[25]
  viability, T/C: 66.3%
[26]
  viability, T/C: 80.3%
[27]
  viability, T/C: 86.9%
[28]
  viability, T/C: 43.5%

## CC1(C)CCC(Nc2ncc(C(F)(F)F)c(-c3c[nH]c4c(P(C)(C)=O)c(C#N)ccc34)n2)CN1 (stereo not given) + CC(Nc1ncnc2nc[nH]c12)c1cc2cccc(Cl)c2c(=O)n1-c1ccccc1
[1]
  IC50: < 31.6 nM
[2]
  IC50: < 31.6 nM
[3]
  IC50: < 31.6 nM
[4]
  IC50: < 31.6 nM
Curve of first compound, second compound 3.16 µM
  IC50: < 31.6 nM
Curve of first compound, second compound 10 µM
  IC50: < 31.6 nM
[5]
  viability, T/C: 43%
[6]
  viability, T/C: 46.4%
[7]
  viability, T/C: 31.9%
[8]
  viability, T/C: 35.3%
[9]
  viability, T/C: 34.8%
[10]
  viability, T/C: 5.59%
[11]
  viability, T/C: 42.3%
[12]
  viability, T/C: 36.5%
[13]
  viability, T/C: 32.7%
[14]
  viability, T/C: 36.9%
[15]
  viability, T/C: 35.1%
[16]
  viability, T/C: 6.35%
[17]
  viability, T/C: 38%
[18]
  viability, T/C: 37.1%
[19]
  viability, T/C: 41.2%
[20]
  viability, T/C: 36.5%
[21]
  viability, T/C: 26.8%
[22]
  viability, T/C: 6.84%
[23]
  viability, T/C: 42%
[24]
  viability, T/C: 35.5%
[25]
  viability, T/C: 41%
[26]
  viability, T/C: 34.8%
[27]
  viability, T/C: 33.2%
[28]
  viability, T/C: 7.47%
Second compound 3.16 µM, first compound 0.0316 µM
  viability, T/C: 30.8%
Second compound 3.16 µM, first compound 0.1 µM
  viability, T/C: 38.6%
Second compound 3.16 µM, first compound 0.316 µM
  viability, T/C: 41.8%
Second compound 3.16 µM, first compound 1 µM
  viability, T/C: 36.2%
Second compound 3.16 µM, first compound 3.16 µM
  viability, T/C: 32.6%
Second compound 3.16 µM, first compound 10 µM
  viability, T/C: 5.17%
Second compound 10 µM, first compound 0.0316 µM
  viability, T/C: 37.8%
Second compound 10 µM, first compound 0.1 µM
  viability, T/C: 37%
Second compound 10 µM, first compound 0.316 µM
  viability, T/C: 35.9%
Second compound 10 µM, first compound 1 µM
  viability, T/C: 35.1%
Second compound 10 µM, first compound 3.16 µM
  viability, T/C: 28.5%
Second compound 10 µM, first compound 10 µM
  viability, T/C: 5.58%

## CC(C)n1nc(-c2ccc3oc(N)nc3c2)c2c(N)ncnc21
Compound 0.000316 µM
  viability, T/C: 94.6% [middle of 4 runs]
Compound 0.001 µM
  viability, T/C: 105% [middle of 4 runs]
Compound 0.00316 µM
  viability, T/C: 106% [middle of 4 runs]
Compound 0.0316 µM
  viability, T/C: 79.1% [middle of 4 runs]
Compound 0.1 µM
  viability, T/C: 52.8% [middle of 4 runs]
Curve of compound
  IC50: > 100 nM and 90.5 nM
